According to ChEMBL document CHEMBL3988442, “University of Dundee, Small-Polar-MMV Screening Library” (2021):
“And” between values parts separate entries of the source, which are not always exact repeats. Equal entries are not always repeated.

Assays:
[1] = To identify inhibition of the IFN signalling (Jak-Stat) pathway via expression of an eGFP reporter gene under the control of an IFN-stimulated response element (ISRE) containing MxA promoter.; format: functional, Homo sapiens
[2] = target: T1, Shiga toxin 2 (Escherichia coli O157:H7, UniProt P09385+P09386); assay: E. coli 0.157:H7 Shiga Toxin SOP - stx2 screening assay; format: functional
T1 sequence (P09385 whole entry): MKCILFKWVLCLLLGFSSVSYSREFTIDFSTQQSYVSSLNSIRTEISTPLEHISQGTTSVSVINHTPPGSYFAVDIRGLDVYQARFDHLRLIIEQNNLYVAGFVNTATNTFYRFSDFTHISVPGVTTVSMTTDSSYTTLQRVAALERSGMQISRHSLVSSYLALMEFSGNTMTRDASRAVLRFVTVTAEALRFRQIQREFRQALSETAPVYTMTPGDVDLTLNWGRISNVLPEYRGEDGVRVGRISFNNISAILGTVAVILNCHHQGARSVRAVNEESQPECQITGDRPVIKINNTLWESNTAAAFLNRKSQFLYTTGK
T1 sequence (P09386 whole entry): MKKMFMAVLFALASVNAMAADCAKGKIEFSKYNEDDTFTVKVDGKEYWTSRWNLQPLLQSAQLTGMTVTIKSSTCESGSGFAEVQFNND

[3] = target: T2, Histidine--tRNA ligase (Leishmania infantum, UniProt A4I591); assay: Leishmania infantum Histidine tRNA synthetase (LdHisRS); format: functional
T2 sequence (A4I591 whole entry): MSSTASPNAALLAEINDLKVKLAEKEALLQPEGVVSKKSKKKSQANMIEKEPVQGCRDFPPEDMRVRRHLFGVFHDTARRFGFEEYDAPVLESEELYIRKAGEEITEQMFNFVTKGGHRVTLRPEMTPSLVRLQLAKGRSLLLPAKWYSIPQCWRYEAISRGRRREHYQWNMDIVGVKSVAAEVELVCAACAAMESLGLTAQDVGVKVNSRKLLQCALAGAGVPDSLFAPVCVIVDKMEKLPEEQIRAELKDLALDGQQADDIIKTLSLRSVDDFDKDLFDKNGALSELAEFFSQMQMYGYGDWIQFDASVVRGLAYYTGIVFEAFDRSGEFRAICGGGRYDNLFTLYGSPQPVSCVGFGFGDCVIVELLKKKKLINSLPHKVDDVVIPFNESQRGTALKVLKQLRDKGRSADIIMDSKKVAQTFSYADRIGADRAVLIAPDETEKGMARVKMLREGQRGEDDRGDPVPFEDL

[4] = target: T3, Tyrosyl-tRNA synthetase, putative (Trypanosoma cruzi (strain CL Brener), UniProt Q4DSP6); assay: Trypanosoma cruzi tyrosyl tRNA synthetase (TcYRS) _High Tyrosine SOP; format: functional
T3 sequence (Q4DSP6 whole entry): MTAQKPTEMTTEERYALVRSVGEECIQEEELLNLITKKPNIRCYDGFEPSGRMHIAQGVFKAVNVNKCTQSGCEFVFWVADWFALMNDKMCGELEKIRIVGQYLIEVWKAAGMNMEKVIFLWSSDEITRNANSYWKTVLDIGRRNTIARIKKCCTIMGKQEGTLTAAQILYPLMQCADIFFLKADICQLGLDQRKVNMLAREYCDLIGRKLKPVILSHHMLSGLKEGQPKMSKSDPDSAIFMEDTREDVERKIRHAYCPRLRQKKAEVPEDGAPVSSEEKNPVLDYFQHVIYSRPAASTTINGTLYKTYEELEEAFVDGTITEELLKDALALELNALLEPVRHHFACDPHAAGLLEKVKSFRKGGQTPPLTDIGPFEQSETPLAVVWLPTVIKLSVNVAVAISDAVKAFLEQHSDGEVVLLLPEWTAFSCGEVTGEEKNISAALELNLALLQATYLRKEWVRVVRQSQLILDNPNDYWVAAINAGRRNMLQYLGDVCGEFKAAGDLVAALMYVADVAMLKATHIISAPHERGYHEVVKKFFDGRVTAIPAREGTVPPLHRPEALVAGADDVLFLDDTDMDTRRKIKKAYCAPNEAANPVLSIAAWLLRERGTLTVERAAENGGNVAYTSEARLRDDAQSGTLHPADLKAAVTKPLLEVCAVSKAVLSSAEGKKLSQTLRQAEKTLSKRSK

[5] = target: T3, Tyrosyl-tRNA synthetase, putative; assay: Trypanosoma cruzi tyrosyl tRNA synthetase (TcYRS) SOP; format: functional
[6] = In vitro enzyme assay to detect hydrolysis of chlorophenol red-beta-D-[…] directly proportional to the number of Toxoplasma stably expressing beta-galactosidase; format: functional, organism-based, Toxoplasma gondii; conditions: Toxoplasma gondii
[7] = target: T4, Proteasome subunit beta (Trypanosoma cruzi, UniProt O96673); assay: Trypanosoma cruzi proteasome chymotrypsin-like activity (TcProtChymo) assay.; format: functional
T4 sequence (O96673 whole entry): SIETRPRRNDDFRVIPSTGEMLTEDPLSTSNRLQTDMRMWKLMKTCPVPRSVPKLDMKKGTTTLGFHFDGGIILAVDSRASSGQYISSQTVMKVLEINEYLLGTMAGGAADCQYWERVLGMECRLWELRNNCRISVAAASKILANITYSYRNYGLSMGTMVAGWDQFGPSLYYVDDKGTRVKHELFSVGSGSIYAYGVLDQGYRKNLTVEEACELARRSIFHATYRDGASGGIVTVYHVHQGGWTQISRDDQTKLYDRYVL

[8] = Trypanosoma cruzi proteasome luciferase counter-screen; format: functional, N/A
[9] = microbe, parasite or virus in culture; conditions: Mycobacterium tuberculosis, 96 h, read-out: pIC50 (converted)
[10] = microbe, parasite or virus in culture; conditions: Mycobacterium tuberculosis, 72 h, read-out: pIC50 (converted)
[11] = target: Lysine--tRNA ligase (Plasmodium falciparum (isolate 3D7), UniProt Q8IDJ8); assay: Pf-KRS-1 (Lysyl-RNA Synthetase-1, KRS-1, cytosolic KRS) from Plasmodium falciparum. Inhibitor assay, 384 well plate, luminescence read.; format: functional
[12] = target: T5, Aspartate--tRNA(Asp/Asn) ligase (Mycobacterium tuberculosis (strain ATCC 25618 / H37Rv), UniProt P9WFW3); assay: Assay for Asp RNA synthetase-1 from Mycobacterium tuberculosis; format: functional
T5 sequence (P9WFW3 whole entry): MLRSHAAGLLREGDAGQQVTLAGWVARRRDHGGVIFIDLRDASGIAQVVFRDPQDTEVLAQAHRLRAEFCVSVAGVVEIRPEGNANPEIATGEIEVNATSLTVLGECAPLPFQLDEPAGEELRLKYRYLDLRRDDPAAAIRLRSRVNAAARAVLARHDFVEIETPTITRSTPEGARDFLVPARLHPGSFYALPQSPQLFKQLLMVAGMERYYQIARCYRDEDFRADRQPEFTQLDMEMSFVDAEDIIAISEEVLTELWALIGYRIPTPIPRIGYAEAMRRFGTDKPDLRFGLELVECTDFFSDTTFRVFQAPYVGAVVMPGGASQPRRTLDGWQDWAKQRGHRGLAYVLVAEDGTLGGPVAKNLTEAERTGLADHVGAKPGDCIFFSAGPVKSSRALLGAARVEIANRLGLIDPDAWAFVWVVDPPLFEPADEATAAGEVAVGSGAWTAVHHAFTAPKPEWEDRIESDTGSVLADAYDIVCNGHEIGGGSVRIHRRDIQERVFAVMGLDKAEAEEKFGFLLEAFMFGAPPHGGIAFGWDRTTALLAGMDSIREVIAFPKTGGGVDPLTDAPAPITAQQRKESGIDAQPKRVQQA

[13] = target: Chromo domain-containing protein 1 (Saccharomyces cerevisiae (strain ATCC 204508 / S288c) (Baker's yeast), UniProt P32657); assay: ScCHD-1 Enzyme Inhibition Assay; format: functional
[14] = target: T6, Histidine--tRNA ligase (Trypanosoma cruzi (strain CL Brener), UniProt Q4DA54); assay: Trypanosoma cruzi histidyl tRNA synthetase (Tc-HisRS); format: functional
T6 sequence (Q4DA54 whole entry): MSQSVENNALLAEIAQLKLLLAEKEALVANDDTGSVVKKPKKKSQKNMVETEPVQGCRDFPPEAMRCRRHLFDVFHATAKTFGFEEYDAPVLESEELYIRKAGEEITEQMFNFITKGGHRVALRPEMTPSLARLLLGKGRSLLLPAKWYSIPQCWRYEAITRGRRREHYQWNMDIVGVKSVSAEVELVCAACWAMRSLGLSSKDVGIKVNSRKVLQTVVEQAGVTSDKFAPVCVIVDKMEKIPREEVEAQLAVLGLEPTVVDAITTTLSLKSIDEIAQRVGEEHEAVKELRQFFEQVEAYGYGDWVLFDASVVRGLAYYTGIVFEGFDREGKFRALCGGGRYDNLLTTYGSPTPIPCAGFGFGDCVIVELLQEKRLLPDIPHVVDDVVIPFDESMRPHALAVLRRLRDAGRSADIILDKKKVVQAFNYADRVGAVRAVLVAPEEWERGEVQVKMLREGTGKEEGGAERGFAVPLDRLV

[15] = tested on: Plasmodium falciparum; assay: Calibr Malaria Delayed Death Assay SOP; format: functional, organism-based

Lysine--tRNA ligase, sequence (Q8IDJ8 whole entry): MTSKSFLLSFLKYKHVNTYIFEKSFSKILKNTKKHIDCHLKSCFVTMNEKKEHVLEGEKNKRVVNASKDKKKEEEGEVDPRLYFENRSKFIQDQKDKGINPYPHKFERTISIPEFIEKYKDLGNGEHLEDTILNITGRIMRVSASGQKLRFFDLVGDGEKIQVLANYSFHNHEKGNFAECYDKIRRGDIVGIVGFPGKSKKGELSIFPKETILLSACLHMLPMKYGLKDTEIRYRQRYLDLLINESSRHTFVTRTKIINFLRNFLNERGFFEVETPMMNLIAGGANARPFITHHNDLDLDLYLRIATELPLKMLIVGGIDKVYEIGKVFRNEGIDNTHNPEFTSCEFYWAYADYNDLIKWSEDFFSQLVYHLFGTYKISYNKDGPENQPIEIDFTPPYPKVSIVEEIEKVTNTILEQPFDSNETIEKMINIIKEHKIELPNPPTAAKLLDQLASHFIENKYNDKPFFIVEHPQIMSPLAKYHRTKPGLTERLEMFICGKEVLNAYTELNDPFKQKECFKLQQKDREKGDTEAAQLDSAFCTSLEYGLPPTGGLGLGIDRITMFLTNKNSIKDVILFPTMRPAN
Chromo domain-containing protein 1, sequence (P32657 whole entry, the tested form may be a part): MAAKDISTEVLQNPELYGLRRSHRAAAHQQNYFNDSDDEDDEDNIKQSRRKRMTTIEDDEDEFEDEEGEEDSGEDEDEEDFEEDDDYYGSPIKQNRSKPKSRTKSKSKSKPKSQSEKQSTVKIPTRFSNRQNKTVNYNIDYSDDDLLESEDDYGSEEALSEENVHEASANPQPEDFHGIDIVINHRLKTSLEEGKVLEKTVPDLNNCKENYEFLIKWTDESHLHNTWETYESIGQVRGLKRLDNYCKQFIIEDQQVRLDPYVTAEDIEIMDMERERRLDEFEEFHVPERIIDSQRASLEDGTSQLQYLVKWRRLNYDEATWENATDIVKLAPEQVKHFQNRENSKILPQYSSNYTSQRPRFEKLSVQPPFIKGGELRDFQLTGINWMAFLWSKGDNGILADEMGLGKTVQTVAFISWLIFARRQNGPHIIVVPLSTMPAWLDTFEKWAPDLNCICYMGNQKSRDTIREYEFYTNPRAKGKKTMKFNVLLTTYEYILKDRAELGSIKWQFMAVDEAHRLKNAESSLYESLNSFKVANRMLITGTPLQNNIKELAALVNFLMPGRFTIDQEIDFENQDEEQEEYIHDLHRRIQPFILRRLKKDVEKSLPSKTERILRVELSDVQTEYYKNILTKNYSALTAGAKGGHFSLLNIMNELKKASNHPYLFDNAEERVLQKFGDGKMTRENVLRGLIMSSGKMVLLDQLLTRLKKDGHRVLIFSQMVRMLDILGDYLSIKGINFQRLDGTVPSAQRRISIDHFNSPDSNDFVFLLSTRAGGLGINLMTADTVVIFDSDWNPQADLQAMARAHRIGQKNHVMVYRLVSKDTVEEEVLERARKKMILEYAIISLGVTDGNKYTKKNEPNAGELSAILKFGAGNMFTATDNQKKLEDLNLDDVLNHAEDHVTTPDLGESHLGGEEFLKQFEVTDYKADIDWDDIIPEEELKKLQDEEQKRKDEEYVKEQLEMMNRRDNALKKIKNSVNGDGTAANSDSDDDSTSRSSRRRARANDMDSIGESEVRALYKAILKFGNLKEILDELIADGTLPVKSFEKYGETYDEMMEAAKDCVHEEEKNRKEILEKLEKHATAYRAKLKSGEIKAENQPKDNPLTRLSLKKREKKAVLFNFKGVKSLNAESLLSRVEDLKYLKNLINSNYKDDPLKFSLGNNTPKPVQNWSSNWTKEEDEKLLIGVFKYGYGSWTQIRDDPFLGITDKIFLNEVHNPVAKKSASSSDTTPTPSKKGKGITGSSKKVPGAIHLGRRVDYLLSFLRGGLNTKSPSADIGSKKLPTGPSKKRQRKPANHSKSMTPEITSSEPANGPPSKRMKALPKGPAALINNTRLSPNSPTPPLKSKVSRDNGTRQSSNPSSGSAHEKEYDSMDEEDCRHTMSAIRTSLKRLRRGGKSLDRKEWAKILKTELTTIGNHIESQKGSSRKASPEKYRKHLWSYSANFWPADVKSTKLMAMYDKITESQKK

| SMILES | IC50 [2] | IC50 [3] | IC50 [4] | IC50 [5] | other results |
| --- | --- | --- | --- | --- | --- |
| CN(C)S(=O)(=O)N1CCCC(c2cccc(Cc3ccccc3)n2)C1 (stereo unspecified) | > 100 µM | – | – | – | pIC50 [1]: 4.718 and 4.613 |
| NC[C@H]1CC[C@H](C(NC(=O)c2cccc(F)c2)c2ccccn2)CC1 (stereo partly specified) | – | 51 µM and 44.2 µM | > 100 µM and 87.7 µM | 76 µM and > 100 µM | – |
| Fc1cccc(Oc2ccc(CNCC3CNc4ccnn4C3)cn2)c1 (stereo unspecified) | – | > 100 µM | > 100 µM | > 100 µM | – |
| Cc1cccnc1NC(=O)NCc1ccc(N2CCNC(=O)C2)cc1 | – | 19.7 µM and 15 µM | 52 µM and 31.6 µM | 53.1 µM and 32.9 µM | – |
| CN(CCCOc1ccccc1)C(=O)CN1CCc2cncnc2C1 | – | 44 µM and 39.2 µM | > 100 µM | > 100 µM | – |
| Cc1noc(NC(=O)c2ccc(OC(F)(F)F)cc2)n1 | > 100 µM | – | – | – | IC50 [6]: 4.96 µM; IC50 [7]: 4.36 µM and 4.71 µM; pIC50 [8]: 5.158 and 4.98; pIC50 [1]: 5.092; IC50 [9]: 36.6 µM; IC50 [10]: 20 µM |
| Cc1noc(NC(=O)c2ccc(Br)cc2)n1 | > 100 µM | – | – | – | IC50 [6]: 9.76 µM; pIC50 [1]: 4.648 and 4.809 |
| Cc1noc(NC(=O)c2ccc(Br)s2)n1 | > 100 µM | – | – | – | IC50 [9]: 42.5 µM; IC50 [10]: 32.8 µM |
| CCn1nc2c(cc1=O)CN(Cc1nc(-c3ccccn3)no1)CC2 | – | 40 µM and 50.3 µM | – | – | IC50 [11]: > 50.1 µM; IC50 [12]: > 100 µM |
| Fc1ccc(OCc2noc(CN3CCc4cncnc4C3)n2)cc1 | – | 49.6 µM and 74.9 µM | > 100 µM | > 100 µM | – |
| N#Cc1ccc(NCCNc2ccc(C(F)(F)F)cn2)nc1 | > 100 µM | – | – | – | IC50 [6]: 22.7 µM; pIC50 [1]: 5.715 |
| Cn1nc2c(cc1=O)CN(Cc1nc(C(C)(C)C)no1)CC2 | – | 25.4 µM and 17.9 µM | – | – | IC50 [11]: > 50.1 µM; IC50 [12]: > 100 µM |
| O=S(=O)(CCN1CCOC(Cn2cccn2)C1)C(F)(F)F (stereo unspecified) | 15 µM and 14 µM | – | – | – | IC50 [13]: > 29.5 µM; IC50 [9]: > 50.1 µM; IC50 [10]: 28.9 µM |
| O=C(O)C(F)(F)F.c1cnc(N2CCC3(CC2)CN(CC2CC2)c2ccccc23)nc1 | – | 9.51 µM and 9.98 µM | 19.4 µM and 17.9 µM | 16.3 µM and 16.2 µM | IC50 [14]: 32.3 µM and 19.9 µM; pIC50 [15]: 6.09; IC50 ([15]; Plasmodium falciparum): 1.26 µM |
| CC(C)NC(=O)N1CCN(CC2CC2)CC2(CC(=O)N(C)C2)C1 (stereo unspecified) | – | – | > 100 µM | > 100 µM | – |
